Where two headings read alike, the source gives them in different places.
Assays:
Cbl-b = Cbl-b (Homo sapiens (Human), UniProt Q13191); test: Cbl-b displacement assay (Cbl-b inhibition assay), Biological Example 1; format: binding
Method: The ability of candidate compounds to displace a known inhibitor and thereby inhibit Cbl-b activity was measured by monitoring the interaction of Cbl-b with a fluorophore-labeled probe in the presence of the candidate compound.
Following the one hour incubation, the plates were read for TR-FRET signal at 520/620 nm using an Envision plate reader (Perkin Elmer).

[1] = system: primary human total T-cells; test: Primary human total T-cell activation (IL-2 secretion, CD25 surface staining), Biological Example 2; conditions: fold change over baseline; for CD25 staining CD3/CD28 0.3 μM / IL-2 secretion CD3/CD28 0.3 μM: 0.3 μM inhibitor; for CD25 staining CD3/CD28 0.3 μM / IL-2 secretion CD3/CD28 0.3 μM / CD25 staining CD3/CD28 1 μM / IL-2 secretion CD3/CD28 1 μM: anti-CD3 and anti-CD28 co-stimulation; for CD25 staining CD3/CD28 1 μM / IL-2 secretion CD3/CD28 1 μM / CD25 staining CD3 1 μM / IL-2 secretion CD3 1 μM: 1 μM inhibitor; for CD25 staining CD3 1 μM / IL-2 secretion CD3 1 μM / CD25 staining CD3 3 μM / IL-2 secretion CD3 3 μM: anti-CD3 stimulation alone; for CD25 staining CD3 3 μM / IL-2 secretion CD3 3 μM: 3 μM inhibitor
[2] = 0.125 nM Cbl-b final concentration (Low), read-out: Cbl-b activity IC50 (Low)

Cbl-b, sequence (Q13191 36-427): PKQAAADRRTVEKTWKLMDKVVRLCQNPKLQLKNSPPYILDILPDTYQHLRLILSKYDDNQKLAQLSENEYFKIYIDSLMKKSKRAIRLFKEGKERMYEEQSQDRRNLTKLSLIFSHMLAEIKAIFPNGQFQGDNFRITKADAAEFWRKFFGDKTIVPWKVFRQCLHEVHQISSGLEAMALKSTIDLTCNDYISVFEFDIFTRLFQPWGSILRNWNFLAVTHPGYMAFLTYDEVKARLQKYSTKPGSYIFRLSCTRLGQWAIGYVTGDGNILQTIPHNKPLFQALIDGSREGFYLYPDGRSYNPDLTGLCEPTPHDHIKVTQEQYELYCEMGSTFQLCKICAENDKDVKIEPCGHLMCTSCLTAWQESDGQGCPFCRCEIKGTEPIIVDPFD

Row | Compound | IC50 (Cbl-b; [2]) | IC50 (Cbl-b; read-out: IC50 values in the Cbl-b inhibition assay of Biological Example 1) | CD25 staining CD3/CD28 0.3 μM [1] | IL-2 secretion CD3/CD28 0.3 μM [1] | CD25 staining CD3/CD28 1 μM [1] | IL-2 secretion CD3/CD28 1 μM [1] | CD25 staining CD3 1 μM [1] | IL-2 secretion CD3 1 μM [1] | CD25 staining CD3 3 μM [1] | IL-2 secretion CD3 3 μM [1]
1 | Cn1cnnc1C(C)(c1cccc(N2Cc3c(cccc3C(F)(F)F)C2=O)c1)C1CCC1 (stereo not shown) [Compound 18, 2-(3-(1-cyclobutyl-1-(4-methyl-4H-1,2,4-triazol-3-yl)ethyl)phenyl)-4-(trifluoromethyl)isoindolin-1-one] | > 100 nM | > 100 nM | B (B indicates 1.24-1.39 fold) | C (C indicates <20 fold) | B (B indicates 1.24-1.39 fold) | C (C indicates <20 fold) | B (B indicates 1.5-2.5 fold) | C (C indicates <0.70 fold) | A (A indicates >2.5 fold) | C (C indicates <0.70 fold)
2 | C[C@@H]1CN(Cc2cc3c(c(C(F)(F)F)c2)CN(c2cccc([C@]4(c5nncn5C)C[C@@H](C)C4)c2)C3=O)CCC1(F)F [Compound 19, 6-(((R)-4,4-difluoro-3-methylpiperidin-1-yl)methyl)-2-(3-((1s,3S)-3-methyl-1-(4-methyl-4H-1,2,4-triazol-3-yl)cyclobutyl)phenyl)-4-(trifluoromethyl)isoindolin-1-one] | 20 to 100 nM |  |  | C (C indicates <20 fold) |  | C (C indicates <20 fold) | C (C indicates <1.5 fold) | C (C indicates <0.70 fold) | C (C indicates <1.5 fold) | C (C indicates <0.70 fold)
3 | C[C@@H]1CN(Cc2cc3c(c(C(F)(F)F)c2)CN(c2cccc([C@]4(c5nncn5C)C[C@H](C)C4)c2)C3=O)CCC1(F)F [Compound 20, 6-(((R)-4,4-difluoro-3-methylpiperidin-1-yl)methyl)-2-(3-((1r,3R)-3-methyl-1-(4-methyl-4H-1,2,4-triazol-3-yl)cyclobutyl)phenyl)-4-(trifluoromethyl)isoindolin-1-one] | 20 to 100 nM |  | B (B indicates 1.24-1.39 fold) | C (C indicates <20 fold) | B (B indicates 1.24-1.39 fold) | C (C indicates <20 fold) | A (A indicates >2.5 fold) | B (B indicates 0.70-1.1 fold) | A (A indicates >2.5 fold) | A (A indicates >1.1 fold)
4 | Cc1cc(C(=O)Nc2cccc([C@]3(c4nncn4C)C[C@@H](C)C3)c2)nc(C2CC2)n1 [Compound 21, 2-cyclopropyl-6-methyl-N-{3-[(1r,3s)-3-methyl-1-(4-methyl-1,2,4-triazol-3-yl)cyclobutyl]phenyl}pyrimidine-4-carboxamide] | 20 to 100 nM |  | B (B indicates 1.24-1.39 fold) | C (C indicates <20 fold) | B (B indicates 1.24-1.39 fold) | C (C indicates <20 fold) | B (B indicates 1.5-2.5 fold) | B (B indicates 0.70-1.1 fold) | B (B indicates 1.5-2.5 fold) | B (B indicates 0.70-1.1 fold)
5 | Cc1cc(C(=O)Nc2cccc([C@]3(c4nncn4C)C[C@H](C)C3)c2)nc(C2CC2)n1 [Compound 22, 2-cyclopropyl-6-methyl-N-{3-[(1s,3r)-3-methyl-1-(4-methyl-1,2,4-triazol-3-yl)cyclobutyl]phenyl}pyrimidine-4-carboxamide] | 20 to 100 nM |  |  | C (C indicates <20 fold) |  | C (C indicates <20 fold) | C (C indicates <1.5 fold) | C (C indicates <0.70 fold) | C (C indicates <1.5 fold) | C (C indicates <0.70 fold)
6 | C[C@@H]1CN(Cc2cc3c(c(C(F)(F)F)c2)CN(c2cccc([C@]4(c5nncn5C)C[C@@H](C)C4)c2)C3=O)CCO1 [Compound 24, 2-(3-((1s,3S)-3-methyl-1-(4-methyl-4H-1,2,4-triazol-3-yl)cyclobutyl)phenyl)-6-(((R)-2-methylmorpholino)methyl)-4-(trifluoromethyl)isoindolin-1-one] | 20 to 100 nM |  |  | C (C indicates <20 fold) |  | C (C indicates <20 fold) | C (C indicates <1.5 fold) | C (C indicates <0.70 fold) | C (C indicates <1.5 fold) | C (C indicates <0.70 fold)
7 | C[C@H]1CCCN(Cc2cc3c(c(C4CC4)n2)CN(c2cccc([C@]4(c5nncn5C)C[C@@H](C)C4)c2)C3=O)C1 [Compound 25, 4-cyclopropyl-2-(3-((1s,3R)-3-methyl-1-(4-methyl-4H-1,2,4-triazol-3-yl)cyclobutyl)phenyl)-6-(((S)-3-methylpiperidin-1-yl)methyl)-2,3-dihydro-1H-pyrrolo[3,4-c]pyridin-1-one] | 5 to 20 nM |  | B (B indicates 1.24-1.39 fold) | C (C indicates <20 fold) | B (B indicates 1.24-1.39 fold) | C (C indicates <20 fold) | B (B indicates 1.5-2.5 fold) | B (B indicates 0.70-1.1 fold) | B (B indicates 1.5-2.5 fold) | B (B indicates 0.70-1.1 fold)
8 | C[C@@H]1CN(Cc2cc3c(c(C4CC4)n2)CN(c2cccc([C@]4(c5nncn5C)C[C@@H](C)C4)c2)C3=O)CCC1(F)F [Compound 26, 4-cyclopropyl-6-(((R)-4,4-difluoro-3-methylpiperidin-1-yl)methyl)-2-(3-((1s,3S)-3-methyl-1-(4-methyl-4H-1,2,4-triazol-3-yl)cyclobutyl)phenyl)-2,3-dihydro-1H-pyrrolo[3,4-c]pyridin-1-one] | 5 to 20 nM |  | B (B indicates 1.24-1.39 fold) | C (C indicates <20 fold) |  | B (B indicates 20-35 fold) | A (A indicates >2.5 fold) | A (A indicates >1.1 fold) | A (A indicates >2.5 fold) | A (A indicates >1.1 fold)
9 | CC[C@H]1CN(Cc2cc3c(c(C(F)(F)F)c2)CN(c2cccc([C@]4(c5nncn5C)C[C@@H](C)C4)c2)C3=O)CCO1 [Compound 27, 6-(((S)-2-ethylmorpholino)methyl)-2-(3-((1s,3R)-3-methyl-1-(4-methyl-4H-1,2,4-triazol-3-yl)cyclobutyl)phenyl)-4-(trifluoromethyl)isoindolin-1-one] | 5 to 20 nM |  | B (B indicates 1.24-1.39 fold) | C (C indicates <20 fold) |  | B (B indicates 20-35 fold) | C (C indicates <1.5 fold) | C (C indicates <0.70 fold) | C (C indicates <1.5 fold) | C (C indicates <0.70 fold)
10 | C[C@@H]1CN(Cc2cc3c(c(C4CC4)n2)CN(c2cccc([C@]4(c5nncn5C)C[C@@H](C)C4)c2)C3=O)CCO1 [Compound 29, 4-cyclopropyl-2-(3-((1s,3S)-3-methyl-1-(4-methyl-4H-1,2,4-triazol-3-yl)cyclobutyl)phenyl)-6-(((R)-2-methylmorpholino)methyl)-2,3-dihydro-1H-pyrrolo[3,4-c]pyridin-1-one] | 5 to 20 nM |  | B (B indicates 1.24-1.39 fold) | C (C indicates <20 fold) | B (B indicates 1.24-1.39 fold) | B (B indicates 20-35 fold) | A (A indicates >2.5 fold) | A (A indicates >1.1 fold) | B (B indicates 1.5-2.5 fold) | B (B indicates 0.70-1.1 fold)
11 | C[C@@H]1CN(Cc2cc3c(c(C(F)(F)F)c2)CN(c2cccc([C@]4(c5nncn5C)C[C@@H](O)C4)c2)C3=O)CCC1(F)F [Compound 31, 6-(((R)-4,4-difluoro-3-methylpiperidin-1-yl)methyl)-2-(3-((1s,3S)-3-hydroxy-1-(4-methyl-4H-1,2,4-triazol-3-yl)cyclobutyl)phenyl)-4-(trifluoromethyl)isoindolin-1-one] | 5 to 20 nM |  |  | C (C indicates <20 fold) |  | C (C indicates <20 fold) | C (C indicates <1.5 fold) | C (C indicates <0.70 fold) | B (B indicates 1.5-2.5 fold) | C (C indicates <0.70 fold)
12 | C[C@H]1CCCN(Cc2cc3c(c(C(F)(F)F)c2)CN(c2cccc([C@]4(c5nncn5C)C[C@@H](O)C4)c2)C3=O)C1 [Compound 32, 2-(3-((1s,3R)-3-hydroxy-1-(4-methyl-4H-1,2,4-triazol-3-yl)cyclobutyl)phenyl)-6-(((S)-3-methylpiperidin-1-yl)methyl)-4-(trifluoromethyl)isoindolin-1-one] | 5 to 20 nM |  |  | B (B indicates 20-35 fold) |  | A (A indicates >35 fold) | A (A indicates >2.5 fold) | A (A indicates >1.1 fold) | A (A indicates >2.5 fold) | A (A indicates >1.1 fold)
